Common to all, as to assay: NCI anticancer screen, dose series, 48 h
The subject of assay [1] is DMS 114 small cell lung.
The subject of assay [2] is XF 498 CNS.
Assay [3] concerns HOP-18 NSCLC.
The test system of assay [4] is SNB-78 CNS.
Assay [5] deals with M19-MEL melanoma.
Assay [6] relates to DLD-1 colon.
Assay [7] has as its system HOP-92 NSCLC.
Assay [8] concerns KM20L2 colon.
For assay [9], the system named is SR leukemia.
The subject of assay [10] is RXF-631 renal.
Assay [11] has as its system DMS 273 small cell lung.
For assay [12], the system named is TK-10 renal.
For assay [13], the system named is SK-MEL-28 melanoma.
Assay [14] relates to LXFL 529 NSCLC.
The subject of assay [15] is HOP-62 NSCLC.
Assay [16] has as its system MDA-MB-231 breast.

Structures are written as SMILES.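 Compound exposure: 48 hours, 5 concentrations, 96-well plates. TGI denotes the concentration required for complete inhibition of growth.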 A value given as a limit tells only on which side of the number the result lay.

On to `COc1cccc2c1C(=O)c1c(O)c3c(c(O)c1C2=O)CC(O)(C(C)=O)CC3OC1CC([N+](C)(C)C)C(O)C(C)O1` (stereo not drawn), for which the TGI in assay [1] was > 100 µM; in [2], 92.2 µM; in assay [3], > 100 µM; in assay [4], > 100 µM; in assay [5] it was > 100 µM; in [6] it was > 100 µM. In addition, the TGI in assay [7], in assay [8], in assay [9], in assay [10], in assay [11] and in assay [12] was > 100 µM in each case. For the same molecule, the TGI in assay [13], in assay [14] and in assay [15] was > 100 µM throughout.

For `CC[N+](C)(C)c1ccc(C(=C2C=CC(=[N+](C)C)C=C2)c2ccc(N(C)C)cc2)cc1`, the TGI in assay [1] was 26.7 µM; in [2] it was 33.2 µM; in [3], > 100 µM; in assay [5] it was 25 µM; in assay [6] it was 62.4 µM; in [7] it was 54.8 µM. The TGI came to 35.6 µM in assay [9]; 38.4 µM in assay [10]; 25.6 µM in assay [11]; 97.6 µM in assay [12]; 52.4 µM in [13]; 34.1 µM in [14]. For the same molecule, the TGI in assay [15] turned out to be 41.2 µM.

With `CN1NC2=NCCN=C3NN(C)C(=NCCN=C1S2)S3`, the TGI in assay [3], in assay [4], in assay [5], in assay [6], in assay [7] and in assay [8] was > 100 µM in each case. The TGI in assay [9], in assay [11], in assay [13], in assay [14] and in [15] was > 100 µM throughout.

`CC12CC(=O)OC(Cc3ccccc31)O2` (stereo not drawn): the TGI in [1], in assay [2], in [3], in assay [4], in assay [5] and in assay [6] was > 100 µM in each case. For the same molecule, the TGI in assay [7], in assay [8], in [9], in assay [11], in assay [12] and in assay [13] was > 100 µM throughout. For the same molecule, the TGI in [14] and in assay [15] was > 100 µM in each case.

Consider `CC1=CC(=C(c2ccc(N)c(C)c2)c2ccc(N)c(C)c2)C=CC1=N`, for which the TGI in [1] is 9.96 µM; in [2] it was 11.7 µM; in assay [4], 23.4 µM; in assay [5], 14.7 µM; in assay [6], > 100 µM; in assay [7] it was 14.2 µM. Moreover, the TGI was 14.5 µM in [8]; 18.3 µM in assay [9]; 10.8 µM in assay [11]; > 66.2 µM in assay [12]; 19.2 µM in assay [13]; 15 µM in assay [14]. Further, the TGI in assay [15] was determined as 10.4 µM.

In the case of `CC(=O)O[C@H]1CC[C@@]2(C)C(=CC[C@H]3[C@@H]4C[C@H](N5CCN(C)CC5)[C@H](OC(C)=O)[C@@]4(C)CC[C@@H]32)C1`, the TGI is 34.3 µM in assay [16]; 92.7 µM in assay [7]; 11.4 µM in assay [9]; > 100 µM in assay [12]; 26.1 µM in assay [13]; 52.6 µM in assay [15].

For the molecule `COC(=O)/C=C/COCC1C2CCC(=O)C21` (stereo not drawn), the TGI in assay [16], in assay [7], in assay [9], in assay [12], in assay [13] and in [15] was > 100 µM each time.

The values are drawn from PubChem BioAssay (NCI).
